# Data published in patent publication US20250295609A1, “COMPOUND HAVING ANTI-ANDROGEN RECEPTOR ACTIVITY, AND USE THEREOF” (NANJING MINOVA PHARMACEUTICAL CO., LTD., priority 2022, published 2025).
# Assays:
# [1] = Pharmacokinetic study, single oral administration to SD rats; settings: for AUC(0-t) / Cmax / Tmax / half-life: male, SD, rat, po, 50 mg/kg
# Method: Experimental method: Male SD rats were randomly grouped (3 rats per group), given ad libitum access to water during the assay, fasted for 12 or more hours before administration, and given food 4 hours after administration.
# The blood was centrifuged within 60 min of being collected to isolate plasma (centrifuged at 8000 rpm at 2-8° C. for 5 min). After the centrifugation, the plasma was transferred to a 96-well plate or centrifuge tubes, transported in a box with ice, and stored at ≤−15° C. before LC-MS/MS analysis. The drug concentration in the plasma of SD rats was measured by LC-MS/MS bioanalysis, and the plasma concentration-time data were analyzed using WinNonlin™ (Version 8.3, Certara, USA) and a non-compartmental model to evaluate the pharmacokinetic (PK) profiles of the compounds in SD rats.
# [2] = target: T1, AR protein expression in human prostate cancer cells LNCaP (Homo sapiens, UniProt P10275, T878A); assay: Reduction of AR protein expression in LNCaP cells (Western blot, with DHT); format: cell-based; settings: 1 nM DHT; for anti-AR activity (in words): Western blot; for AR reduction percentage / Relative potency (anti-AR activity): 48 h; for Relative potency (anti-AR activity): concentration basis not given
# T1 sequence (P10275 1-920 T878A): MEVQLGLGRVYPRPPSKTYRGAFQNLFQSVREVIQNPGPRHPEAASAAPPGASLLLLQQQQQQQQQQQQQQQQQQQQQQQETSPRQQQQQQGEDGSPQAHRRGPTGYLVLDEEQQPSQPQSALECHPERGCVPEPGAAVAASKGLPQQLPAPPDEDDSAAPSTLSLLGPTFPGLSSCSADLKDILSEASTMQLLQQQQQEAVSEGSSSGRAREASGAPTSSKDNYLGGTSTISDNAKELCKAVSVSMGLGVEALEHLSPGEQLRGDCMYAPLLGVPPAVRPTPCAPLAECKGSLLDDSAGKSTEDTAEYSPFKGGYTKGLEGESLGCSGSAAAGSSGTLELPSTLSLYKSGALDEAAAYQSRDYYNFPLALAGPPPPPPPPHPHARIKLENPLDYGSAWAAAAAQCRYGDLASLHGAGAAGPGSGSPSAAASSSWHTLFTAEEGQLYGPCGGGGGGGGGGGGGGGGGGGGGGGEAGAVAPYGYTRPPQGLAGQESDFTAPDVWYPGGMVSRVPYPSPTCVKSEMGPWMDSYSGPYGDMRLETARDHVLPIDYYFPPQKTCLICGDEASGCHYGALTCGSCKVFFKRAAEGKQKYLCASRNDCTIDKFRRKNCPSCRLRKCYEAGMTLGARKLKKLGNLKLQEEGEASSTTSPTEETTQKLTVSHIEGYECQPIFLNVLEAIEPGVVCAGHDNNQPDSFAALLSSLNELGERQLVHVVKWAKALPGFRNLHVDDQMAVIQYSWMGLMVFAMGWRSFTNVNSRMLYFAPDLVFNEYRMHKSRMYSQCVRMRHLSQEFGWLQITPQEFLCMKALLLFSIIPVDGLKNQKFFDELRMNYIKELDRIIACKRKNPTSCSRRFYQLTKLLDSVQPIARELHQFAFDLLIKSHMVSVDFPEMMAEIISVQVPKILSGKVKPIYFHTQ
# Method: The term “anti-AR activity” refers to the ability of the compound of the present disclosure to reduce AR expression in human prostate cancer cells LNCaP, and the ability of the compound of the present disclosure to reduce AR expression is expressed in AR reduction percentage (%) herein. […] The AR reduction percentage (%) is calculated as follows: AR reduction percentage (%)=(AR in DHT group/GAPDH value−AR in test compound group/GAPDH value)/AR in DHT group/GAPDH value×100%.
# AR is a key factor for regulating the response of prostate cancer cells to androgens. AR is also a key factor for the response of hair follicles or tissues around the hair follicles to androgens, and the reduction of the AR content not only can down-regulate the growth of the prostate cancer cells, but also can inhibit androgenetic alopecia. This test example is to test the effects of the compounds of the present disclosure on the reduction of AR protein expression in human prostate cancer cells LNCaP in the presence of DHT. The compounds of the present disclosure were analyzed for anti-AR activity in human prostate cancer cells LNCaP by measuring the reduction of AR protein using the Western blot method.
# Human prostate cancer cells LNCaP were seeded in a 6-well plate at 4×10^5 cells/mL and at a volume of 2 mL per well. The plate was incubated overnight in a cell incubator. DMSO and dihydrotestosterone (DHT, 1 nM) were used as control groups. Assays were performed in the presence of dihydrotestosterone (DHT, 1 nM). After incubating with the test compounds for a specified time, the cells were collected and dissolved according to the Western blot technique known in the biochemical art. A DMSO group, a DHT group (1 nM) and test compound groups (containing 1 nM DHT) were set during the assay. DMSO and DHT (1 nM DHT) were added to 6-well plates corresponding to the DMSO group and the DHT group, respectively. […] The protein concentration was quantified using the BCA kit, and then the samples were stored for later use.
# The content of the AR protein in each group was determined by using Western Blot, and the loading amount of the sample in each group was […]. Western blot analysis has been disclosed in the prior art. Specifically, the cells were collected in 2× sodium dodecyl sulfate/polyacrylamide gel electrophoresis loading buffer or in radioimmunoprecipitation assay (RIPA) buffer strengthened with 10 μg/mL benzamidine, 10 μg/mL trypsin inhibitor, and 1 mM phenylmethylsulfonyl fluoride. A sample of total protein (about 40 μg) from each cell lysate was separated by electrophoresis on an SDS/PAGE gel. After separation by electrophoresis, the proteins were transferred from the gel to a nitrocellulose membrane following the standard procedures. The membrane was then incubated with 10% non-fat milk in phosphate-buffered saline supplemented with 0.1% Tween 20 (PBST) for 1 h, followed by incubation with a primary human AR-specific antibody (purchased from BD-Harlingen) at 4° C. overnight. After incubation, the membrane was washed 3 times with PBST buffer, each for 10 mins. An alkaline phosphatase-conjugated secondary antibody was then added, and the membrane was incubated at room temperature for 1 h. After the secondary incubation, the membrane was washed again with PBST, and the AR protein signal in the membrane was visualized by adding an alkaline phosphatase medium, bromochloroindolyl phosphate, and nitrotetrazole to the membrane. To ensure that an equal amount of protein from each sample was analyzed, a portion of the membrane was kept with a specific antibody for the regulatory protein GAPDH (Santa Cruz Biotechnology), and the GAPDH signal was visualized with the secondary antibody described above. The protein signal intensity (as indicated by color bands on the membrane) was measured using a densitometer and analyzed by the NIH Image J software (NIH1.33).
SMILES,AUC(0-t) ([1]; in vivo) [ng·h/mL],Cmax ([1]; in vivo) [ng/mL],Tmax ([1]; in vivo) [min],half-life ([1]; in vivo) [min],anti-AR activity (in words) [2],AR reduction percentage ([2]; 2.5 μmol/L compound) [%],AR reduction percentage ([2]; 5 μmol/L compound) [%],AR reduction percentage ([2]; 10 μmol/L compound) [%],Relative potency (anti-AR activity) [2],"AUClast in rats (comparison in words) ([1]; SD rats, oral, same dose, FIG. 2)",AUC(0-t) ([1]; plasma) [ng·h/mL],Cmax ([1]; plasma) [ng/mL],Tmax ([1]; plasma) [min],half-life ([1]; plasma) [min]
COc1ccc(/C=C/C(=O)C2(C(=O)/C=C/c3ccc(OC)c(OC)c3)CCC(=O)CC2)cc1OC [Compound 7],460,298,11.4,177,significant anti-AR activities,0,67.3,95.6,+++++ (62.5 < * ≤ 75),–,–,–,–,–
COc1ccc(/C=C/C(=O)C2(C(=O)/C=C/c3ccc(OC)c(OC)c3)CCC(F)(F)CC2)cc1OC [Compound 8],–,–,–,–,significant anti-AR activities,57.5,87.3,92.2,++++++ (75 < * ≤ 100),higher AUClast than that of compound 7,1010,282,19.8,94.2
